# According to PMC3066128 (PLoS Biology, 2011):
# Like-named read-outs stand apart in the source and are kept apart here.
# How the values were obtained:
# [1] = target: T1, human α7 nAChR W55A (Homo sapiens, UniProt P36544, W77A); experiment: Two-electrode voltage clamp, α7 nAChR W55A in Xenopus oocytes; type: cell-based; settings: co-applied with EC50 acetylcholine
# T1 construct: expressed in transfected cells; host or cells: Xenopus oocytes injected with cRNA (pMXT)
# Excerpt: (§1) To address this question, we performed alanine-scanning mutagenesis of the homologous residues in the human GlyR or nAChR using structure-based sequence alignments with AChBP (see Figure S1). The two-electrode voltage-clamp technique was used to measure ligand potency on wild type and mutant GlyR or nAChR expressed in Xenopus oocytes. […] One of these mutants, F207A, was previously characterized in the work from Grundzinska et al..
# (§2) For d-TC, previous mutagenesis studies have been carried out either on the muscle-type nAChR [1] or 5-HT3R [5],[12]. […] Both model systems either complicate the mutational analysis or make it difficult to derive conclusions that can be generalized to other CLRs. Here, we chose the human α7 nAChR to characterize the effect of homologous contact mutations on the potency of d-TC. The α7 nAChR, which is also a target of d-TC [4], is closely related to Ac-AChBP and is an attractive model system to extrapolate the results obtained from our X-ray crystal structures.
# (§3) Competitive binding assays with ^3H-epibatidine were carried out as previously published with minor modifications (see Text S1). Electrophysiological assays were carried out using the two-electrode voltage clamp technique. The cDNA encoding human α1 GlyR was subcloned into pGEM-HE for oocyte expression with a PCR strategy and verified by sequencing. […]
# [2] = target: T2, human α7 nAChR G167A (Homo sapiens, UniProt P36544, G189A); experiment: Two-electrode voltage clamp, α7 nAChR G167A in Xenopus oocytes; type: cell-based; settings: co-applied with EC50 acetylcholine
# T2 construct: expressed in transfected cells; host or cells: Xenopus oocytes injected with cRNA (pMXT)
# T2 sequence (P36544 23-502 G189A): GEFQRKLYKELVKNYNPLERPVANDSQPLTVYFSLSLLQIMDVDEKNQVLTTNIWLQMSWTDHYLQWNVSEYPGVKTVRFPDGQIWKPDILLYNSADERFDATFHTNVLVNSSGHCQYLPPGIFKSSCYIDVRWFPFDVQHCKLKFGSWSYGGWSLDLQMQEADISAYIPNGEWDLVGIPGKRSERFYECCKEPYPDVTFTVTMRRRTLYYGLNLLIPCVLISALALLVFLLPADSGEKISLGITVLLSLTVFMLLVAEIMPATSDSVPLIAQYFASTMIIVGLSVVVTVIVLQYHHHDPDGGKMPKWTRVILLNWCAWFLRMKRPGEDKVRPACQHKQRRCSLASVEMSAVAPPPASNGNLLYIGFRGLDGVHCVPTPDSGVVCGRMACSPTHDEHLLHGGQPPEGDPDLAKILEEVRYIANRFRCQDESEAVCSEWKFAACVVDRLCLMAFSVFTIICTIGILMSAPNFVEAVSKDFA
# Excerpt: as §1, §2, §3
# [3] = target: T3, human α7 nAChR wt (Homo sapiens, UniProt P36544); experiment: Two-electrode voltage clamp, wild type α7 nAChR in Xenopus oocytes; type: cell-based; settings: co-applied with EC50 acetylcholine
# T3 construct: expressed in transfected cells; host or cells: Xenopus oocytes injected with cRNA (pMXT)
# T3 sequence (P36544 23-502): as the sequence (P36544 23-502 G189A) above, with A167G counted along it
# Excerpt: as §1, §2, §3
# [4] = target: T4, human α7 nAChR L119A (Homo sapiens, UniProt P36544, L141A); experiment: Two-electrode voltage clamp, α7 nAChR L119A in Xenopus oocytes; type: cell-based; settings: co-applied with EC50 acetylcholine
# T4 construct: expressed in transfected cells; host or cells: Xenopus oocytes injected with cRNA (pMXT)
# T4 sequence (P36544 23-502 L141A): as the sequence (P36544 23-502 G189A) above, with L119A, A167G counted along it
# Excerpt: as §1, §2, §3
# [5] = system: 5-HT3R; settings: human versus mouse 5-HT3R; cited from earlier work
# [6] = target: Ls-AChBP (Lymnaea stagnalis, UniProt P58154); experiment: biochemical; type: binding
# Chain of Ls-AChBP (P58154 20-229): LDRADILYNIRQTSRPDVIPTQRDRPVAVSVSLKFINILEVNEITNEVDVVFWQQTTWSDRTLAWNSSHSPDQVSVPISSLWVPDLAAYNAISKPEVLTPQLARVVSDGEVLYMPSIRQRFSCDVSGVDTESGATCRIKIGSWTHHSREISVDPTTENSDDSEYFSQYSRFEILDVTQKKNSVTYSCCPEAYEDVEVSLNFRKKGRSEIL
# Experimental: (§4) Competitive binding assays with ^3H-epibatidine were carried out as previously published with minor modifications (see Text S1). Electrophysiological assays were carried out using the two-electrode voltage clamp technique. The cDNA encoding human α1 GlyR was subcloned into pGEM-HE for oocyte expression with a PCR strategy and verified by sequencing. The cDNA was linearized with NheI and transcribed with the T7 mMessage mMachine kit from Ambion. The cDNA encoding the human α7 nAChR was cloned into pMXT and linearized with BamHI for transcription with the SP6 mMessage mMachine kit from Ambion. All mutants were engineered using a Quikchange method (Stratagene) and verified by sequencing. Recordings were obtained from oocytes 2–5 d after injection with 50 nl of ∼1 ng/nl RNA. […] Student's t test was used for statistical comparison of paired observations.
# Human neuroblastoma cells (SH-SY5Y) stably expressing human α7 nAChR were obtained from Christian Fuhrer (Department of Neurochemistry, Brain Research Institute, University of Zurich). […] The SPA beads were allowed to settle for 2-4 h and the radioactivity was measured in a Wallac 1450 MicroBeta liquid scintillation counter.
# [7] = target: T5, human α7 nAChR (Homo sapiens, UniProt P36544); experiment: biochemical; type: binding
# T5 construct: expressed in transfected cells
# T5 sequence (P36544 23-502): as the sequence (P36544 23-502 G189A) above, with A167G counted along it
# Experimental: Human neuroblastoma cells (SH-SY5Y) stably expressing human α7 nAChR were obtained from Christian Fuhrer (Department of Neurochemistry, Brain Research Institute, University of Zurich). The cells were maintained in DMEM/F12 (Dulbecco's Modified Eagle Medium / Nutrient Mixture F-12) supplemented with 10% fetal calf serum (FCS), 50 IU/mL penicillin, 50 µg/mL streptomycin and 0.1 mg/ml geneticin in 5% CO2 humidified atmosphere at 37°C. Batches of cells from several passages were washed 3x with PBS, harvested and after centrifuging aliquots, the cell-pellets were stored at -80°C until use. Although there appeared to be little batch-to-batch variation, only one passage was used for the triplicate experiments as described below. […] The SPA beads were allowed to settle for 2-4 h and the radioactivity was measured in a Wallac 1450 MicroBeta liquid scintillation counter. All radioligand binding data were evaluated by a nonlinear, least-squares curve fitting procedure using Graphpad Prism (version 5.0a, GraphPad Software, Inc., San Diego, CA). […]
# Frozen cell pellets with the human α7 nAChR were thawed, homogenized in ice-cold binding buffer, sonicated before use and added at 0.1 mg/ml. […] After drying the filter-plates, scintillation fluid (MicroScint, Perkin Elmer) was added and the radioactivity was measured as above.
# [8] = target: T6, human α7 nAChR S36A (Homo sapiens, UniProt P36544, S58A); experiment: Two-electrode voltage clamp, α7 nAChR S36A in Xenopus oocytes; type: cell-based; settings: co-applied with EC50 acetylcholine
# T6 construct: expressed in transfected cells; host or cells: Xenopus oocytes injected with cRNA (pMXT)
# T6 sequence (P36544 23-502 S58A): as the sequence (P36544 23-502 G189A) above, with S36A, A167G counted along it
# Excerpt: as §1, §2, §3
# [9] = target: T7, human α7 nAChR S148A (Homo sapiens, UniProt P36544, S170A); experiment: Two-electrode voltage clamp, α7 nAChR S148A in Xenopus oocytes; type: cell-based; settings: co-applied with EC50 acetylcholine
# T7 construct: expressed in transfected cells; host or cells: Xenopus oocytes injected with cRNA (pMXT)
# T7 sequence (P36544 23-502 S170A): as the sequence (P36544 23-502 G189A) above, with S148A, A167G counted along it
# Excerpt: as §1, §2, §3
# [10] = target: T8, human α7 nAChR E193A (Homo sapiens, UniProt P36544, E215A); experiment: Two-electrode voltage clamp, α7 nAChR E193A in Xenopus oocytes; type: cell-based; settings: co-applied with EC50 acetylcholine
# T8 construct: expressed in transfected cells; host or cells: Xenopus oocytes injected with cRNA (pMXT)
# T8 sequence (P36544 23-502 E215A): as the sequence (P36544 23-502 G189A) above, with A167G, E193A counted along it
# Excerpt: as §1, §2, §3
# [11] = target: mouse 5-HT3R; set-up: method as in PMID 10026168; settings: taken from previous study; cited from earlier work
# [12] = system: muscle-type nAChR; set-up: method as in PMID 8415719; settings: heteropentameric muscle-type nAChR; cited from earlier work
# [13] = target: T9, human α7 nAChR Q117A (Homo sapiens, UniProt P36544, Q139A); experiment: Two-electrode voltage clamp, α7 nAChR Q117A in Xenopus oocytes; type: cell-based; settings: co-applied with EC50 acetylcholine
# T9 construct: expressed in transfected cells; host or cells: Xenopus oocytes injected with cRNA (pMXT)
# T9 sequence (P36544 23-502 Q139A): as the sequence (P36544 23-502 G189A) above, with Q117A, A167G counted along it
# Excerpt: as §1, §2, §3
# [14] = target: T10, human α7 nAChR Y93A (Homo sapiens, UniProt P36544, Y115A); experiment: Two-electrode voltage clamp, α7 nAChR Y93A in Xenopus oocytes; type: cell-based; settings: co-applied with EC50 acetylcholine
# T10 construct: expressed in transfected cells; host or cells: Xenopus oocytes injected with cRNA (pMXT)
# T10 sequence (P36544 23-502 Y115A): as the sequence (P36544 23-502 G189A) above, with Y93A, A167G counted along it
# Excerpt: as §1, §2, §3
# [15] = target: human α1 GlyR; settings: taken from previous study; cited from earlier work
# [16] = target: human α1 GlyR S129A (Homo sapiens, UniProt P23415, S157A); experiment: cell-based; settings: for mut/wt: IC50 α1 GlyR S129A over wt
# Chain of human α1 GlyR S129A (P23415 29-457 S157A): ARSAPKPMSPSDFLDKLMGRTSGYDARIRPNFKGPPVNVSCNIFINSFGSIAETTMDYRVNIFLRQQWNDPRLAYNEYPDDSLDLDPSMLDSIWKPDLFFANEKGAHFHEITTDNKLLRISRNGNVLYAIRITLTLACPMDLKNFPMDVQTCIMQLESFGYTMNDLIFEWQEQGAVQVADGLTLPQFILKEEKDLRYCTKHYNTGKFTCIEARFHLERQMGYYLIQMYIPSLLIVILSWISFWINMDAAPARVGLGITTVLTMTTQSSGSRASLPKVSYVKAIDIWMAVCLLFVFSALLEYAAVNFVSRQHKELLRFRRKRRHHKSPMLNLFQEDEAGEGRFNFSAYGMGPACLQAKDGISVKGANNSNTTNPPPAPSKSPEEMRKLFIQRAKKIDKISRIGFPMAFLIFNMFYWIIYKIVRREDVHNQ
# Experimental: as §1, §4
# [17] = target: human α1 GlyR S158A (Homo sapiens, UniProt P23415, S186A); experiment: cell-based; settings: for mut/wt: IC50 α1 GlyR S158A over wt
# Chain of human α1 GlyR S158A (P23415 29-457 S186A): as the sequence (P23415 29-457 S157A) above, with A129S, S158A counted along it
# Experimental: as §1, §4
# [18] = target: human α1 GlyR F44A (Homo sapiens, UniProt P23415, F72A); experiment: cell-based; settings: for mut/wt: IC50 α1 GlyR F44A over wt
# Chain of human α1 GlyR F44A (P23415 29-457 F72A): as the sequence (P23415 29-457 S157A) above, with F44A, A129S counted along it
# Experimental: as §1, §4
# [19] = target: human α1 GlyR I210A (Homo sapiens, UniProt P23415, I238A); experiment: cell-based
# Chain of human α1 GlyR I210A (P23415 29-457 I238A): as the sequence (P23415 29-457 S157A) above, with A129S, I210A counted along it
# Experimental: as §1, §4
# [20] = target: human α1 GlyR Q67A (Homo sapiens, UniProt P23415, Q95A); experiment: cell-based; settings: for mut/wt: IC50 α1 GlyR Q67A over wt
# Chain of human α1 GlyR Q67A (P23415 29-457 Q95A): as the sequence (P23415 29-457 S157A) above, with Q67A, A129S counted along it
# Experimental: as §1, §4
# [21] = target: human α1 GlyR wt (Homo sapiens, UniProt P23415); experiment: cell-based
# Chain of human α1 GlyR wt (P23415 29-457): as the sequence (P23415 29-457 S157A) above, with A129S counted along it
# Experimental: as §1, §4
# [22] = target: human α1 GlyR F207A (Homo sapiens, UniProt P23415, F235A); experiment: cell-based
# Chain of human α1 GlyR F207A (P23415 29-457 F235A): as the sequence (P23415 29-457 S157A) above, with A129S, F207A counted along it
# Experimental: as §1, §4
# [23] = target: human α1 GlyR Q177A (Homo sapiens, UniProt P23415, Q205A); experiment: cell-based; settings: for mut/wt: IC50 α1 GlyR Q177A over wt
# Chain of human α1 GlyR Q177A (P23415 29-457 Q205A): as the sequence (P23415 29-457 S157A) above, with A129S, Q177A counted along it
# Experimental: as §1, §4
# [24] = target: human α1 GlyR A101F (Homo sapiens, UniProt P23415, A129F); experiment: cell-based; settings: for mut/wt: IC50 α1 GlyR A101F over wt
# Chain of human α1 GlyR A101F (P23415 29-457 A129F): as the sequence (P23415 29-457 S157A) above, with A101F, A129S counted along it
# Experimental: as §1, §4
# [25] = target: human α1 GlyR L127A (Homo sapiens, UniProt P23415, L155A); experiment: cell-based; settings: for mut/wt: IC50 α1 GlyR L127A over wt
# Chain of human α1 GlyR L127A (P23415 29-457 L155A): as the sequence (P23415 29-457 S157A) above, with L127A, A129S counted along it
# Experimental: as §1, §4
# [26] = system: α1 GlyR F63A; settings: ref Grudzinska et al. 23; cited from earlier work
# [27] = system: α1 GlyR R65A; settings: ref Grudzinska et al. 23; cited from earlier work
# [28] = system: α1 GlyR F63A; settings: IC50 α1 GlyR F63A (ref 23) over wt
# [29] = system: α1 GlyR R65A; settings: IC50 α1 GlyR R65A (ref 23) over wt
# T1 sequence (P36544 23-502 W77A): as the sequence (P36544 23-502 G189A) above, with W55A, A167G counted along it
structure (smiles),measurement,setting,value
COc1cc2c3cc1Oc1cc(ccc1O)C[C@@H]1c4c(cc(OC)c(O)c4Oc4ccc(cc4)C[C@@H]3N(C)CC2)CC[N+]1(C)C [d-tubocurarine],IC50,[1],16.7 ± 0.94 µM
same,IC50,[2],significant decrease in the IC50-values
same,IC50,[2]; read-out: IC50,0.043 ± 0.002 µM
same,IC50,[3],1.19 ± 0.17 µM
same,IC50,[4],9.19 ± 2.16 µM
same,difference in affinity between human and mouse 5-HT3R,[5],"more than 1,000 fold"
same,Ki,[6],0.171 ± 0.0183 µM
same,Ki,"[7]; competition with 3H-methyllycaconitine, human α7 nAChR, read-out: Ki",2.98 µM
same,IC50,[8],2.25 ± 0.52 µM
same,IC50,[9],176 ± 10.8 µM
same,IC50,[10],8.1 ± 0.68 µM
same,Ki,[11],0.138 ± 0.022 µM
same,difference in affinity between the two binding sites,[12],100 fold
same,IC50,[13],2.28 ± 0.14 µM
same,IC50,[14],7.81 ± 0.98 µM
O=C1C[C@@H]2OCC=C3CN4CC[C@]56c7ccccc7N1[C@H]5[C@H]2[C@H]3C[C@H]46 [strychnine],Ki,[15],0.016 ± 0.002 µM
same,IC50,[16],0.358 ± 0.144 µM
same,mut/wt,[16],~10
same,mut/wt,[16]; listed as Strychnine,8
same,IC50,[17],13.8 µM
same,mut/wt,[17],300
same,mut/wt,[17]; listed as Strychnine,294
same,IC50,[18],0.13 ± 0.00406 µM
same,mut/wt,[18],3
same,mut/wt,[18]; listed as Strychnine,2.8
same,IC50,[19],0.103 ± 0.019 µM
same,mut/wt,[19]; IC50 α1 GlyR I210A over wt,2.2
same,IC50,[20],0.689 ± 0.176 µM
same,mut/wt,[20],15
same,mut/wt,[20]; listed as Strychnine,14.7
same,IC50,[21],0.0468 ± 0.00875 µM
same,IC50,[22],5590 ± 1890 µM
same,mut/wt,[22]; IC50 α1 GlyR F207A over wt,"119,444"
same,IC50,[23],0.00336 ± 0.00063 µM
same,mut/wt,[23],apparent increase in strychnine-potency
same,mut/wt,[23]; listed as Strychnine,0.1
same,IC50,"[23]; α1 GlyR Q177A, co-applied with EC50 glycine",significant decrease in the IC50-values
same,IC50,[24],0.583 ± 0.0476 µM
same,mut/wt,[24],~10
same,mut/wt,[24]; listed as Strychnine,12
same,IC50,[25],0.376 ± 0.0692 µM
same,mut/wt,[25],~10
same,mut/wt,[25]; listed as Strychnine,8
same,IC50,[26],12 µM
same,IC50,[27],0.16 ± 0.05 µM
same,Ki,[6],0.224 ± 0.0263 µM
same,Ki,[7],4.85 µM
same,mut/wt,[28],250
same,mut/wt,[28]; listed as Strychnine,256
same,mut/wt,[29],3
same,mut/wt,[29]; listed as Strychnine,3.4
